Results: PMC11873939, “Target Identification with Live-Cell Photoaffinity Labeling and Mechanism of Action Elucidation of ARN23765, a Highly Potent CFTR Corrector” (Journal of Medicinal Chemistry, 2025)

Columns and labels:
[1] = target: T1, F508del/R1070W-CFTR (Homo sapiens, UniProt P13569, DEL508-508/R1070W); experiment: Protein maturation assay (WB, band C/(C+B)) in transfected HEK293 cells; type: cell-based; conditions: HEK293, 24 h; ARN23765 10 nM, VX-661 3 μM
T1 construct: CFTR identification in pull-down studies and analysis of full-length CFTR in protein maturation assays; expressed in transfected cells; host or cells: HEK293 (transient)
Description: HEK293 cells were plated in 24-wells at around 80% of confluence and transfected with constructs coding for F508del-CFTR or mutants using JetPEI reagent (101000053, Polyplus Technology) following the manufacturer’s instructions. After 24 h, the correctors were added for a further 24 h. […] For binding site analysis experiments, the cells were kept either at 37 °C (Figure S8) or moved to 30 °C (Figure 9) during incubation with the selected correctors. VX-445 and corrector 3151 were mixed together as a control for maximal protein correction. DMSO (0.2%) was added to nontreated controls. After treatment, cells were lysed in RIPA buffer [50 mM tris-HCl pH 8, 150 mM NaCl, 1% NP40, 0.5% sodium deoxycolate, 0.1% SDS, 2.0 mM EDTA] and lysates were analyzed with WB, as described in the supplementary methods of the Supporting Information.

[2] = target: T2, F508del-CFTR (Homo sapiens, UniProt P13569, DEL508-508); experiment: HS-YFP functional assay in CFBE41o- cells stably overexpressing F508del-CFTR; type: cell-based; conditions: 24 h treatment
T2 construct: expressed in transfected cells
Description: These analogues were tested in the functional assay on the human bronchial epithelia-derived cell line, CFBE41o-, which stably overexpresses F508del-CFTR and the halide-sensitive yellow fluorescent protein (HS-YFP).[31] […]
HS-YFP-based assay for CFTR activity
Twenty-four hours after seeding on 96-well plates, CFBE41o- cells stably over-expressing F508del-CFTR and the HS-YFP were treated with test compounds at different concentrations in the 3 nM-10 µM range.1 Cells treated with vehicle alone (DMSO) and with ARN23765, respectively, served as negative and positive controls. The following day, cells were washed with PBS containing (in mM) 137 NaCl, 2.7 KCl, 8.1 Na2HPO4, 1.5 KH2PO4, 1.0 CaCl2, and 0.5 MgCl2. Cells were then incubated for 25 min with […] of PBS plus forskolin (20 µM) and VX-770 (1 µM) to maximally stimulate F508del-CFTR. Cells were then transferred to a microplate reader (FluoStar Galaxy; BMG Labtech, Offenburg, Germany) for CFTR activity determination. The plate reader was equipped with high-quality excitation (HQ500/20X: 500 ± 10 nm) and emission (HQ535/30M: 535 ± 15 nm) filters for YFP (Chroma Technology). Each assay comprised a continuous 14 s fluorescence reading, 2 s before and 12 s after injection of […] of an iodide-containing solution (PBS with Cl- replaced by I-; final I- concentration […]). Data were normalized to the initial background-subtracted fluorescence. To determine I- influx rate, the final 11 s of the data for each well were fitted with an exponential function to extrapolate initial slope (dF/dt). Reproducibility of results was confirmed by performing three independent experiments. […]

[3] = system: CFTR; set-up: method as in PMID 32128418; conditions: HS-YFP assay; cited from earlier work

T2 sequence (P13569 with tags, fused parts or gaps DEL508-508): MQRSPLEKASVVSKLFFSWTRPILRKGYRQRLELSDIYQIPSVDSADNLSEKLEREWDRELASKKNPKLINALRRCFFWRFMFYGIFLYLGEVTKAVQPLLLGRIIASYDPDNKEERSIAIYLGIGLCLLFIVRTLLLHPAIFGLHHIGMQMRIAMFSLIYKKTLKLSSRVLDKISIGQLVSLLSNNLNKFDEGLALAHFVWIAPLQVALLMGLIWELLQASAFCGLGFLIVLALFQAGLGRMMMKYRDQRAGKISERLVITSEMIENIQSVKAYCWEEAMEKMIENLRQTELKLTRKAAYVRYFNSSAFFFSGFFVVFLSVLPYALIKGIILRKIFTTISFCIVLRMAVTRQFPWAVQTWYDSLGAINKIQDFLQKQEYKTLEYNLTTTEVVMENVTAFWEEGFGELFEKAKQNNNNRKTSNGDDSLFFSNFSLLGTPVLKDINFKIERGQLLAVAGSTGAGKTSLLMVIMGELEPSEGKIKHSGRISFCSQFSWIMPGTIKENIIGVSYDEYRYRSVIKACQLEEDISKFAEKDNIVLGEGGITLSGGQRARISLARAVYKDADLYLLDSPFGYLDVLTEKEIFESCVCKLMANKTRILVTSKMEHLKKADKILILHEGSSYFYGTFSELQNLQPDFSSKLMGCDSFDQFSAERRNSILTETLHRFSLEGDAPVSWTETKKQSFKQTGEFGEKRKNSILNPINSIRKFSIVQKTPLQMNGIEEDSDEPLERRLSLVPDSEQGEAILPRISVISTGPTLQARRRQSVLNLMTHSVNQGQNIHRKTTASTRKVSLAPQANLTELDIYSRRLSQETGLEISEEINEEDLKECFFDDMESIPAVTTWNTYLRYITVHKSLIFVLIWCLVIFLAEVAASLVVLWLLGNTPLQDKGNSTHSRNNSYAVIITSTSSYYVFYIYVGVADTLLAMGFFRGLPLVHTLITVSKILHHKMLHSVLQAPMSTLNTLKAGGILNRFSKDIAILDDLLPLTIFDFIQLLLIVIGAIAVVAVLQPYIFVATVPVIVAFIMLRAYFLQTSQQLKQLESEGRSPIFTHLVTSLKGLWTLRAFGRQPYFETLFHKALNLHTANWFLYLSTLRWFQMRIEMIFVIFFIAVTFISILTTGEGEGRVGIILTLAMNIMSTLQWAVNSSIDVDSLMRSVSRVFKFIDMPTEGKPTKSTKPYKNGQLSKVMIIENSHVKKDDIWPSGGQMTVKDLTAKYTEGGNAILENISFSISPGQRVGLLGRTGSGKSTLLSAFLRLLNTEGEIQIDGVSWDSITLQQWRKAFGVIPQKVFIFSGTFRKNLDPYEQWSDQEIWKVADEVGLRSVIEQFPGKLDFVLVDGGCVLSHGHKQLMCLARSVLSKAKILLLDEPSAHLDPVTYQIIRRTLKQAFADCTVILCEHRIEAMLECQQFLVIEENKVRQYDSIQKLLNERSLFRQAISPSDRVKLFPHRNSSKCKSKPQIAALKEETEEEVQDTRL
T1 sequence (P13569 with tags, fused parts or gaps DEL508-508/R1070W): as the sequence (P13569 with tags, fused parts or gaps DEL508-508) above, with R1069W counted along it

- F508del/R1070W protein maturation [1]: further enhanced
- EC50 ([2]; 3 nM-10 µM range): < 3 nM
- HS-YFP assay in CFBE41o- cells Emax ([2]; values normalized to DMSO-incubated cells): 2.7
SMILES: CN(C(=O)c1cccc(-n2nc(C(F)(F)F)c3c2[C@@H](Oc2ccc(C(=O)O)cc2)CCC3)c1)c1ccc2c(c1)OC(F)(F)O2 [ARN23765]
- Effect on the protein gating [3]: no effect
